{"source": "patent US20160038526A1", "about": "“TREATMENT OF PROSTATE CANCER” (THOMAS JEFFERSON UNIVERSITY, priority 2012, published 2016)", "key": {"[1]": {"target": "T1, Stat5a (Homo sapiens, UniProt P42229)", "T1 sequence (P42229 1-794)": "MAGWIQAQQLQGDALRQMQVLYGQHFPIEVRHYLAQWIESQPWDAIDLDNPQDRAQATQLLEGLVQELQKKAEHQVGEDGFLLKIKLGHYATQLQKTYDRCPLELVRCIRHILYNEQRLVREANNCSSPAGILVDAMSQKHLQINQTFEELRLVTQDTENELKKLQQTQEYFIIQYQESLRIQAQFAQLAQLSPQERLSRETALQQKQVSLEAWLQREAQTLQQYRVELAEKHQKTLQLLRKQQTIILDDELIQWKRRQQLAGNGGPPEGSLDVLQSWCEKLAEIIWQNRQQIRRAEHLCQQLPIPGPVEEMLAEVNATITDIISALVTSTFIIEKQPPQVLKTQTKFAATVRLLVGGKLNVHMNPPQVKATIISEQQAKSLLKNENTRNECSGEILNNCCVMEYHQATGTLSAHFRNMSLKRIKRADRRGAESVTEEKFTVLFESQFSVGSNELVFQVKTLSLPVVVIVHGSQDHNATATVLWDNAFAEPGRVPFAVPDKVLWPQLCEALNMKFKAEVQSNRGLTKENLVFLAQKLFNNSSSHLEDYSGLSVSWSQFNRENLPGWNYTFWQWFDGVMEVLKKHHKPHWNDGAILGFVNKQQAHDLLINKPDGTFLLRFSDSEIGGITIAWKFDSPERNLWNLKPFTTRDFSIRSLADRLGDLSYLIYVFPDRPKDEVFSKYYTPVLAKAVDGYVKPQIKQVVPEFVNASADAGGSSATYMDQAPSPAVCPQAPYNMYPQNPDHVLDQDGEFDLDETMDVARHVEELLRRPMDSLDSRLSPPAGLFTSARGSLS", "assay": "Stat5 dimerization assay (FLAG-/MYC-tagged Stat5a co-immunoprecipitation) in PC-3 cells", "type": "cell-based", "parameters": "expressed in transfected cells; host or cells: PC-3", "conditions": "2 hours pretreatment, hPrl 10 nM 30 minutes", "method": "FLAG-tagged Stat5a and MYC-tagged Stat5a were generated as follows. Plasmid pCMV3-FLAG-Stat5a, pCMV3-MYC-Stat5a and pPrlR were co-transfected using FuGENE6 (Roche) into PC-3 cells (2 μg of each plasmid per 1×10^7 cells). The cells were starved for 20 hours, pretreated with N6BAP for 2 hours, then stimulated with hPrl (10 nM) in RPMI 1640 without serum for 30 minutes. The cell lysates were immunoprecipitated with 25 μl anti-FLAG M2 […] affinity gel (2 μg/ml, Sigma), anti-MYC pAb (1 μg/ml, Upstate) or normal rabbit serum (NRS). The primary antibodies were used in the immunoblottings at the following concentrations: anti-FLAG pAb (1:1000; Stratagene), anti-MYC mAb (1:1000; Sigma), anti-Stat5a/b mAb (1:250) (Transduction Laboratories) detected by horseradish peroxidase-conjugated secondary antibodies.\nLanes 1, 2, 4, 6, 8, 10, 12, 14 and 16 represent cells stimulated with human prolactin (Prl) for 30 minutes which induces dimerization of Stat5. Two hours prior to Prl-stimulation, the cells had been treated with DMSO (lanes 1-4), the control compound C5 (lanes 5 and 6) or N6BAP (lanes 7-16) to test whether the Stat5a/b-inhibitor compound, N6BAP, would be able to inhibit dimerization of Stat5. […] It should be noted the drug effect in this study was not due to cell apoptosis induction, as the treatment time was only 2 hours. […]"}, "[2]": {"system": "A2058 human melanoma", "assay": "Cell viability assay, A2058", "type": "cell-based", "method": "(§1) CWR22Rv1 prostate cancer cells were treated with N6BAP or the control compound C5 (Ctrl) at 25 μM concentration or vehicle for 24 h. Following trypan blue exclusion, the attached viable vs. de-attached dead cells were counted. […] The bars indicate mean±SD of triplicate wells. In another assay, CWR22Rv1, LNCaP and DU145 cells were treated with N6BAP, the control compound C5 (Ctrl) or vehicle at indicated concentrations. The fraction of alive cells was determined by MTS ([…]) metabolic activity assay (CellTiter 96® AQueous Assay kit). The results are shown in FIGS. 9C, 9D and 9E, respectively.\n(§2) The procedure of Example 9 was followed, substituting cells of the following solid tumor cell lines for the cells treated in Example 9: A549 human lung cancer cells, CAPAN human pancreatic cancer cells, T47D human breast cancer cells, […], A2058 human melanoma and COS-7 monkey fibroblast cell lines."}, "[3]": {"system": "A549 human lung cancer cells", "assay": "Cell viability assay, A549", "type": "cell-based", "method": "as §1, §2"}, "[4]": {"target": "T2, Stat5 (Homo sapiens, UniProt P42229)", "T2 construct": "endogenous in cells; host or cells: CWR22Rv1", "assay": "Prolactin-induced Stat5 phosphorylation in CWR22Rv1 cells (immunoprecipitation/Western blot)", "type": "cell-based", "conditions": "CWR22Rv1 cells, 25, 50 and 100 μM for 2 h, 10 nM Prl 30 minutes", "method": "CWR22Rv1 cells were starved for 24 h in serum-free medium, treated N6BAP at 25, 50 and 100 μM concentrations for 2 h, followed by stimulation with 10 nM Prl for 30 minutes. Stat5a and Jak2 were immunoprecipitated with anti-Stat5a or anti-Jak2 pAbs. Immunoprecipitates of CWR22Rv1 cells were blotted with anti-PYStat5, anti-Stat5a/b mAb or anti-PY mAb (for Jak2). Whole cell lysates were immunoblotted with anti-actin pAb for loading control. Because SH2-domain of Stat5 mediates the recruitment of Stat5 to the Prl-receptor-Jak2-complex and Stat5 phosphorylation, N6BAP inhibits Prl-induced phosphorylation of Stat5.\nThe protocol in more detail comprised the following. Cell pellets were solubilized in lysis buffer [10 mM Tris-HCl (pH 7.6), 5 mM EDTA, 50 mM sodium chloride, 30 mM sodium pyrophosphate, 50 mM sodium fluoride, 1 mM sodium orthovanadate, 1% Triton X-100, 1 mM phenylmethylsulfonyl fluoride, 5 μg/mlaprotinin, 1 μg/ml pepstatin A, and 2 μg/ml leupeptin], rotated end-over-end at 4° C. for 60 min, and insoluble material was pelleted at 12,000×g for 30 min at 4° C. The protein concentrations of clarified cell lysates were determined by simplified Bradford method (Bio-Rad Laboratories, Hercules, Calif.). Stat5a, Stat5b and Jak2 were immunoprecipitated from whole cell lysates with anti-Stat5a, anti-Stat5b (4 μl/ml; Millipore, Billerica, Mass.) or anti-Jak2 (Millipore) pAbs. […]"}, "[5]": {"system": "CWR22Rv1 cells", "assay": "Cell viability, MTS metabolic activity assay, CWR22Rv1", "type": "cell-based, human", "conditions": "CWR22Rv1, 72 h", "method": "as §1"}}}
{"smiles": "O=P(O)(O)OC[C@H]1O[C@@H](n2cnc3c(NCc4ccccc4)ncnc32)[C@H](O)[C@@H]1O", "note": "[N6BAP, N^6-benzyladenosine-5′-monophosphate]", "values": [{"measurement": "dimerization of Stat5a", "setting": "[1]", "value": "effectively inhibited Stat5a dimerization"}, {"measurement": "cell viability", "setting": "[2]", "value": "did not affect the viability"}, {"measurement": "cell viability", "setting": "[3]", "value": "did not affect the viability"}, {"measurement": "Prl-induced phosphorylation of Stat5", "setting": "[4]", "value": "inhibits Stat5 phosphorylation"}, {"measurement": "number of viable cells", "setting": "[5]", "value": "decreases the number of viable cells"}]}
